Like-named read-outs stand apart in the source and are kept apart here.
Tests used:
[1] = system: human
[2] = system: human; settings: cited from earlier work
[3] = previous range about 170-174 pounds held for ten years

| SMILES | ability to sleep without the drug (dependence) ([1]; after extended use of zolpidem alone) | time asleep before getting up to empty their bladder ([1]; inventor, nightly use) | time kept asleep per dose ([1]; zolpidem (Ambien) alone) | duration of effectiveness ([2]; zolpidem alone, background) | time of use after which tolerance can develop ([2]; zolpidem alone, background) | period of use after which the drug becomes addictive ([2]; zolpidem alone, Kirkwood, Mariani et al.) | effectiveness in maintaining sleep ([2]; zolpidem, Wikipedia, Rosenberg 2006) | drowsiness after getting up ([1]; quetiapine (Seroquel) alone, 75 mg reduced gradually to 50 mg) | drowsiness after getting up ([1]; quetiapine alone, 25 mg) | time the drug had to be taken before going to bed ([1]; quetiapine alone, 25 mg) | grogginess after additional dose taken during the night ([1]; quetiapine alone, 25 mg plus additional quetiapine) | body weight [3] | dosage ultimately required after development of tolerance ([2]; quetiapine, Mariani et al. report) | time after ingestion before the drug enters the system ([2]; quetiapine, background) | side effect at recommended amounts ([2]; quetiapine, Wikipedia, Seroquel prescribing information) |
| --- | --- | --- | --- | --- | --- | --- | --- | --- | --- | --- | --- | --- | --- | --- | --- |
| Cc1ccc(-c2nc3ccc(C)cn3c2CC(=O)N(C)C)cc1 [zolpidem] | unable to sleep without zolpidem | four or even three | about four | about four | just a few weeks | about two months or longer | has not adequately demonstrated effectiveness in maintaining sleep |  |  |  |  |  |  |  |  |
| OCCOCCN1CCN(C2=Nc3ccccc3Sc3ccccc32)CC1 [quetiapine] |  |  |  |  |  |  |  | leaving them drowsy, especially in the mornings | did not leave them drowsy after getting up | an hour to an hour and a half | left them a bit groggy during the early part of the day | 184 pounds | 800 mg | about an hour or more | somnolence (drowsiness) |

— US8741888B2, “Sleep aid composition and method” (priority 2010, dated 2014)
